Experimental data published in ChEMBL document CHEMBL4052770, “Synthesis and in vitro antiproliferative activities of (5-aryl-1,2,4-oxadiazole-3-yl) methyl d-ribofuranosides” (2017).

Key:
Assay type in all cases: functional
HeLa = test: Antiproliferative activity against human HeLa cells after 48 hrs by sulforhodamine B assay
HBL-100 = test: Antiproliferative activity against human HBL100 cells after 48 hrs by sulforhodamine B assay; conditions: HBL-100, 48 h
A549 = test: Antiproliferative activity against human A549 cells after 48 hrs by sulforhodamine B assay; conditions: A549, 48 h
SW1573 = test: Antiproliferative activity against human SW1573 cells after 48 hrs by sulforhodamine B assay; conditions: SW1573, 48 h
T47D = test: Antiproliferative activity against human T47D cells after 48 hrs by sulforhodamine B assay
WiDr = test: Antiproliferative activity against human WiDr cells after 48 hrs by sulforhodamine B assay

SMILES | GI50 (HeLa) [µM] | GI50 (HBL-100) [µM] | GI50 (A549) [µM] | GI50 (SW1573) [µM] | GI50 (T47D) [µM] | GI50 (WiDr) [µM]
Cc1ccc(S(=O)(=O)OC[C@H]2O[C@@H](OCc3noc(-c4ccc([N+](=O)[O-])cc4)n3)[C@@H]3OC4(CCCC4)O[C@@H]32)cc1 | > 100 | > 100 | > 100 | > 100 | > 100 | > 100
Clc1ccc(-c2nc(CO[C@@H]3O[C@H](CSc4ncn[nH]4)[C@H]4OC5(CCCC5)O[C@@H]34)no2)cc1 | 14 | 24 | 13 | 10 | 10 | 4.5
CC(=O)OC[C@H]1O[C@@H](OCc2noc(-c3ccc([N+](=O)[O-])cc3)n2)[C@@H]2OC3(CCCC3)O[C@@H]21 | 17 | 23 | 29 | 29 | 52 | 36
Nc1nnc(SC[C@H]2O[C@@H](OCc3noc(-c4ccc([N+](=O)[O-])cc4)n3)[C@@H]3OC4(CCCC4)O[C@@H]32)s1 | 28 | 26 | 14 | 16 | 19 | 26
COc1cc(-c2nc(CO[C@@H]3O[C@H](CSc4nnc(N)s4)[C@H]4OC5(CCCC5)O[C@@H]34)no2)cc(OC)c1OC | 31 | 33 | 36 | 38 | 42 | 41
O=[N+]([O-])c1ccc(-c2nc(CO[C@@H]3O[C@H](CSc4ncn[nH]4)[C@H]4OC5(CCCC5)O[C@@H]34)no2)cc1 | 20 | 24 | 10 | 15 | 20 | 20
Nc1nnc(SC[C@H]2O[C@@H](OCc3noc(-c4ccc(Cl)cc4)n3)[C@@H]3OC4(CCCC4)O[C@@H]32)s1 | 16 | 30 | 15 | 17 | 18 | 15
COc1cc(-c2cc(CO[C@@H]3O[C@H](CSc4ncn[nH]4)[C@H]4OC5(CCCC5)O[C@@H]34)on2)cc(OC)c1OC | 67 | 87 | 59 | 97 | 94 | 74
COc1cc(-c2nc(CO[C@@H]3O[C@H](CSc4ncn[nH]4)[C@H]4OC5(CCCC5)O[C@@H]34)no2)cc(OC)c1OC | 37 | 34 | 28 | 36 | 44 | 42
O=[N+]([O-])c1ccc(-c2nc(CO[C@@H]3O[C@H](CO)[C@H]4OC5(CCCC5)O[C@@H]34)no2)cc1 | 15 | 17 | 32 | 27 | 50 | 41
CC1(C)O[C@H]2[C@H](OCc3noc(-c4ccc([N+](=O)[O-])cc4)n3)O[C@H](CO)[C@H]2O1 | 99 | 99 | 99 | 60 | > 100 | > 100
COc1cc(-n2cc(CO[C@@H]3O[C@H](CSc4ncn[nH]4)[C@H]4OC5(CCCC5)O[C@@H]34)nn2)cc(OC)c1OC | 30 | 84 | 33 | > 100 | 41 | 26
CC1(C)O[C@H]2[C@H](OCc3noc(-c4ccc([N+](=O)[O-])cc4)n3)O[C@H](CSc3nnc(N)s3)[C@H]2O1 | > 100 | > 100 | > 100 | > 100 | > 100 | > 100
CC1(C)O[C@H]2[C@H](OCc3noc(-c4ccc([N+](=O)[O-])cc4)n3)O[C@H](CSc3ncn[nH]3)[C@H]2O1 | 89 | > 100 | 90 | > 100 | > 100 | > 100
COc1cc(C2=NOC(CO[C@@H]3O[C@H](CSc4ncn[nH]4)[C@H]4OC5(CCCC5)O[C@@H]34)C2)cc(OC)c1OC (stereo not given in full) | 38 | 43 | 37 | > 100 | 55 | 53
